The subject of one data set is HKII. Description: Glycolysis enzyme levels in CC cells (WB, ICC). The format is cell-based, human. How it is done:
WB analyses were carried out as previously described before. In brief, cells were lysed in RIPA buffer mixed with protease inhibitors and separated on SDS-PAGE gel, transferred to PVDF membrane treated with 5% skim milk to exclude non-specific background and incubated with a primary antibody over-night. The membrane was incubated for 1 h with a secondary antibody conjugated to Horseradish Peroxidase (HRP). The protein-antibody complex was visualized using the SuperSignal West Pico Chemiluminescent Substrate (Thermo scientific, USA).
Cells were fixed with 4% paraformaldehyde (30 min) and incubated with Permeabilization Solution containing 0.1% Triton X-100 (Sigma-Aldrich, Israel) in PBS at room temperature for 1 h. Nonspecific binding was blocked with PBS containing 10% fetal bovine serum for 1 h at room temperature. Cells were incubated with specific antibodies diluted 1:100 overnight at 4° C. […] Bound primary antibodies were detected by Alexa Fluor® 488 goat anti-mouse IgG antibody or Alexa Fluor® 594 goat anti-rabbit IgG antibody (Molecular Probes, Invitrogen, U.K.). […] Nonspecific staining, as determined by binding to the secondary antibody only, was negligible. The immunostained slides were examined under the fluorescence microscope AxioimagerZ1 (Zeiss, Germany) or confocal fluorescence microscope (Olympus-FV1000).

Another data set addresses MAPK8 (JNK1) (Homo sapiens, UniProt P45983). Kind of data set: Kinase panel assay, MAPK8. The format is biochemical. The conditions noted are these: above threshold. As for the experimental part: (§1) Kinase panel assays were performed using the FRET-based Z′-LYTE, Lantha Screen and Adapta enzymatic kinase assay systems (Life Technologies, Carlsbad, Calif.), which were carried out using the SelectScreen Kinase Profiling Service (Life Technologies). The standard reaction contained 2 μM peptide substrate, ATP at the optimal assay concentration, 50 mM HEPES (pH 7.5), 0.01% Brij-35, 10 mM MgCl2, 1 mM EGTA, and the tested kinase. Each kinase was checked for its activity in duplicate data points (n=2) and was assayed following the detailed procedures outlined in the SelectScreen service. Percent inhibition or ATP displacement (For Lantha screen) represent a ratio of phosphorylated/ATP bound product formed in the presence of the compound compared with phosphorylated/ATP bound product formed in reactions containing 1% DMSO.
(§2) Kinome technique was used for monitoring phosphorylation events and phosphorylation targets of 0260-Fer interaction, using peptide arrays for human targets and phosphorylation-specific antibodies. Construction of peptide arrays relied on information from phosphorylation databases. The following proteins were determined as significant above the threshold of 40% kinase activity inhibition or ATP displacement to the Kinase domain site.

Data set [1] has as its target CSF1R (Colony stimulating factor 1 receptor-FMS) (Homo sapiens, UniProt P07333). Kind of data set: Kinase panel assay, CSF1R. Conditions: above threshold. Format: biochemical. How it is done: as §1, §2
Another data set relates to CC cells. Kind of data set: Glycolysis rate (secreted lactate) in CC cells. The format is cell-based, human. The conditions noted are these: 12 h. As for the experimental part: Cells were grown in MEM containing 1 gr/lit glucose or in DMEM with 4.5 gr/lit glucose. Secreted lactate levels were determined using Lactate Colorimetric Assay Kit II according to the manufacturer's protocol (Biovision, USA).

The target of data set [2] is DAPK1 (Death-associated protein kinase 1) (Homo sapiens, UniProt P53355). Kind of data set: Kinase panel assay, DAPK1. The format is biochemical. Conditions: above threshold. As for the experimental part:
as §1, §2

A short description of data set [3]: Pharmacokinetic study in mice. The format is in vivo. The conditions noted are these: IP. How it is done: The investigation of PK properties of 0260 was carried out using 30 ICR/CD-1 mice. Intraperitoneal (IP) administration was used, and the solution was administered as 10 ml per 1 kg of animal body weight. At 5, 15, 30, 60, 120, and 240 min after administration (5 mice per each time point) mice were decapitated and blood samples were taken in EDTA-containing tubes. Plasma was prepared from the collected blood by centrifugation and then forwarded for LC-MS/MS analysis. A high sensitivity analytical method was developed for detection of 0260. Analysis was performed in the Agilent 1100 HPLC system including degasser, the binary pump, autosampler, and absorption detector with variable wavelength ranging between 190-600 nm. The HPLC system was coupled with the tandem mass spectrometer API 2000 (Applied Biosystems). The TurboIonSpray ion source was used in the positive ion mode. Data acquisition was performed with Analyst 1.3.1 software.

Data set [4] deals with triple negative breast carcinoma MDA-MB-231 (MDA). Description: MultiTox-Fluor cytotoxicity assay in MDA-MB-231 cells. The format is cell-based, human. The conditions noted are these: 24-72 h. How it is done:
Cell lines (HCT116, ht29, Rko, Hep3B, SW48, SW620, MDA-MB-231, PANC-1, su.86.86, Hfb) were obtained from the American Type Culture Collection (ATCC). Cell type authentication was carried out by microscope and DNA profiles using short tandem repeat analysis. Cells were grown in Minimum Essential Medium (MEM) containing 10% heat-inactivated Fetal Bovine Serum (FBS) or in Dulbecco's Modified Eagle's Medium (DMEM) containing 10% FBS, where specified, at 37° C. with 5% CO2. In general, the in-vitro experiments were carried out with 2. μM 0260 added into the growth medium. Dose response experiments included increasing 0260 concentrations. Cell death levels were determined using the MultiTox-Fluor Multiplex Cytotoxicity Assay (G9201, Promega, USA). In brief, 10,000 cells were seeded in black bottom 96 wells plate and were allowed to attach to the plate bottom for 16 h before the administration of various 0260 concentration in each well. Cell death levels were determined according to the manufacturer's protocol.
Cells death level was determined using the MultiTox-Fluor Multiplex Cytotoxicity Assay (G9201, Promega, USA) according to the manufacturer's protocol.

The test system of data set [5] is malignant cells (CC and MDA cells). Description: Cellular ATP level (HPLC) in malignant cells. The format is cell-based, human. Conditions: CC cells, high glucose. As for the experimental part: Quantification of intracellular ATP was carried out using HPLC as previously described.
Cells were suspended in 400 μl cold 0.4M perchloric acid solution, incubated on ice for 15 min, centrifuged at 12,000×g, neutralized with 4M K2CO3 to pH 7.5, incubated for 15 min on ice and concentrated (10,000×g). Chromatographic analyses were performed using Hitachi Elite LaChrom system at 30° C. applying supernatants to SUPELCOSIL™ LC-18-S HPLC Column (5 μm particle size, L×I.D. 25 cm×2.1 mm), flow rate 0.2 mL/min under isocratic elution conditions (50 mM potassium phosphate, 100 mM triethylamine, pH 6.5 (adjusted with phosphoric acid)):Acetonitrile (98.5:1.5)). Each analysis cycle was set to 30 min, chromatographic flow was monitored at 260 nm and integrated using EZChrom Elite Software.

Structures are written as SMILES. Where a name gives a salt, the structure may show the parent alone.

CSF1R (Colony stimulating factor 1 receptor-FMS), sequence (P07333 20-972): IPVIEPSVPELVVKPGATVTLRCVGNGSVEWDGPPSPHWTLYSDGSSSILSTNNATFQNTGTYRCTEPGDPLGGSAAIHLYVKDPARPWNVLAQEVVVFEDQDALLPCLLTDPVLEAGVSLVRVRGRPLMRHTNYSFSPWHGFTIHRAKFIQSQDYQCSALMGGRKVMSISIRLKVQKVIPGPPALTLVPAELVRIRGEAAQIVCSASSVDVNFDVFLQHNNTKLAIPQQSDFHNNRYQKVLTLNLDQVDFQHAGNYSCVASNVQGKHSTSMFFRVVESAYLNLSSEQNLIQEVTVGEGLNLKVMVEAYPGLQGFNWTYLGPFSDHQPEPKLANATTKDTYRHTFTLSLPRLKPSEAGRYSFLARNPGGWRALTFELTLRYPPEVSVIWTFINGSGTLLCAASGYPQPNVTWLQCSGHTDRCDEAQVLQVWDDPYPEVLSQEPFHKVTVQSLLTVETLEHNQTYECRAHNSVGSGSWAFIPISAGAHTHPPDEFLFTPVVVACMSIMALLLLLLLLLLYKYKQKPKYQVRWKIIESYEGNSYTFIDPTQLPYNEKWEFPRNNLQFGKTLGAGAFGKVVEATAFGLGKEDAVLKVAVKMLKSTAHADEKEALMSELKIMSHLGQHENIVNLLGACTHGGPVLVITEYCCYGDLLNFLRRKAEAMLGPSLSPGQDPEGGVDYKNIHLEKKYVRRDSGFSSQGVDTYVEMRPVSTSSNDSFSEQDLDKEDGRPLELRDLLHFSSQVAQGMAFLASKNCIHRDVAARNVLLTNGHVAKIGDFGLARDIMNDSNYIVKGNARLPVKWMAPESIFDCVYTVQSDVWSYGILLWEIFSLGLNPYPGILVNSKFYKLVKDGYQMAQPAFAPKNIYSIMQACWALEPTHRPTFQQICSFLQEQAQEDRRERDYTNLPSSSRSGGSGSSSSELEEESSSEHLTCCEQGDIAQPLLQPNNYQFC
DAPK1 (Death-associated protein kinase 1), sequence (P53355 whole entry): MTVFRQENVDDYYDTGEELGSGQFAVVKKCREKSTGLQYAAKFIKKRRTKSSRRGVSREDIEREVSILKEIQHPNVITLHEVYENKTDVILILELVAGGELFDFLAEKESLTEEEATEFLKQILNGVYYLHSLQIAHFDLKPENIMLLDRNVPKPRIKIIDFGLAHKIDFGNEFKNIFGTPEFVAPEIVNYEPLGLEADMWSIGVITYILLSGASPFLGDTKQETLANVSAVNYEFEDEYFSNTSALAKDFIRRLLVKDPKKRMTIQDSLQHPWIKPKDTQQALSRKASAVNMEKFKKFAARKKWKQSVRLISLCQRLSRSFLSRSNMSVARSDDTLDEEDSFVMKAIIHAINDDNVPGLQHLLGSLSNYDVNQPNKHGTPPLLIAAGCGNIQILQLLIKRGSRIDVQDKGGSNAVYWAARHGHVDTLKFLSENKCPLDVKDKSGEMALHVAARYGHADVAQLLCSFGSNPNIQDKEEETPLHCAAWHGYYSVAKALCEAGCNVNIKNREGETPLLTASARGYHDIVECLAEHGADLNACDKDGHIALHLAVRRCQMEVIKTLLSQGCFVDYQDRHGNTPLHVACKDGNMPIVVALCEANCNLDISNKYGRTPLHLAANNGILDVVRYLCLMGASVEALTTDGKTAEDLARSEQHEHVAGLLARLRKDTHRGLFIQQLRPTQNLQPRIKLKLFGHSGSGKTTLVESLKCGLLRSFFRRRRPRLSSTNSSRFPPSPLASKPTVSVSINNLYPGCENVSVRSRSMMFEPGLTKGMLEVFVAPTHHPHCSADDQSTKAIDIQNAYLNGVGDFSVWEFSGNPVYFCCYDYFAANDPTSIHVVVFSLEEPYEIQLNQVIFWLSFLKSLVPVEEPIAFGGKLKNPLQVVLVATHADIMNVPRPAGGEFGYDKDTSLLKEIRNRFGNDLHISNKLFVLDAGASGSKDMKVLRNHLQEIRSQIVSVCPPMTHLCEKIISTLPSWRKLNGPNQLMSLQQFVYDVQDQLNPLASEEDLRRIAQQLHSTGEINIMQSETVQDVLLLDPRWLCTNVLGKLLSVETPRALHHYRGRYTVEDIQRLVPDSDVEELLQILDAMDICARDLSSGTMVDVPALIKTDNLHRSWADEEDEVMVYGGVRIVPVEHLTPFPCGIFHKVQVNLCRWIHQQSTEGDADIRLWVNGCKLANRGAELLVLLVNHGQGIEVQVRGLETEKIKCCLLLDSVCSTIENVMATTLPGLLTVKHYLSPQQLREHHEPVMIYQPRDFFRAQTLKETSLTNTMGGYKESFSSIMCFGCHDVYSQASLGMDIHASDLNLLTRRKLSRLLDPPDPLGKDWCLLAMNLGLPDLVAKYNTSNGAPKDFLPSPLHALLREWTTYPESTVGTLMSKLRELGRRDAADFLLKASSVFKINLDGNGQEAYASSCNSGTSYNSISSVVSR
MAPK8 (JNK1), sequence (P45983 whole entry): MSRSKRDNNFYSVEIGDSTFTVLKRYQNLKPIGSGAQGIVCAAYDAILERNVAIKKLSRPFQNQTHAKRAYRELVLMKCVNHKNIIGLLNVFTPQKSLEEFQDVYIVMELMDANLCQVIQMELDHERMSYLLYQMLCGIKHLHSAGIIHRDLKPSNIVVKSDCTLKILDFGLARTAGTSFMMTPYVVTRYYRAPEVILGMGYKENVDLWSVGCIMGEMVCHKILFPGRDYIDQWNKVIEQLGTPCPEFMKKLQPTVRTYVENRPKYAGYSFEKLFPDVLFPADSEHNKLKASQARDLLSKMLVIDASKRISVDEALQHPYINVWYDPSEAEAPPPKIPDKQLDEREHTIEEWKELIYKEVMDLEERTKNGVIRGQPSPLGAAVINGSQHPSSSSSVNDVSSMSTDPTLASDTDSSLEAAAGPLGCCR

For `CC(C)c1ccc(-c2cn3nc(N4CCC(CN5CCN(C)CC5)CC4)sc3n2)cc1` [compound 0260, tartarate salt of 6-(4-isopropyl-phenyl)-2-{4-[(4-methyl-piperazin-1-yl)methyl]piperidin-1-yl}-imidazo [2,1-b][1,3,4]thiadiazole], the HKII level result in the data set on HKII was “down-regulation of HKII”. Moreover, the “kinase activity inhibition or ATP displacement” value (at MAPK8 (JNK1); in data set [1]; in data set [2]) was greater than 40% each time. Further, in the data set with CC cells (high glucose concentration), the “additional acceleration of glycolytic rate” value is given as 30%. The “elevation in the glycolytic rate” value in the data set with CC cells (high glucose concentration, total) was 65%. For the same molecule, the “acceleration of glycolytic rate” value with CC cells (low glucose) is given as 35%. The half-life in data set [3] (ICR/CD-1, mouse, plasma, read-out: T1/2 in the blood) stood at 175 min. This molecule also registered a volume of distribution in data set [3] of 4244 mL/kg. Moreover, in data set [4], the “concentration efficient in inducing cell death” value was no more than 1.5 µM. For the same molecule, the “effect on ATP levels under high glucose medium” value in data set [5] was “reducing its effect on ATP levels”.

The values above are taken from patent publication US20180071280A1, “MODULATORS OF CELL DEATH PROCESSES” (URIFER LTD., priority 2015, published 2018).
